In data set [1] the test system is Botrytis cinerea (BOTRCI). As to the kind of experiment: agar diffusion assay (fungicidal action, MIC). It counts as cell-based. A general note: Agar diffusion results depend on both activity and mobility in agar.
The subject of data set [2] is Pyricularia orycae (PYRIOR). Briefly: microbe, parasite or virus in culture. It counts as cell-based.
The test system of data set [3] is Pseudocercosporella herpotrichoides (PSDCHW). As to the kind of experiment: agar diffusion assay (fungicidal action, MIC). The class given is cell-based. The following applies: PSDCHR.
In data set [4] the test system is Rhizoctonia solani (RHIZSO). As to the kind of experiment: agar diffusion assay (fungicidal action, MIC). It counts as cell-based.
The next data set has as its system Ustilago maydis (USTIMA). Briefly: agar diffusion assay (fungicidal action, MIC). The class given is cell-based.
In data set [5] the test system is Fusarium culmorum (FUSACU). Briefly: agar diffusion assay (fungicidal action, MIC). It counts as cell-based.
The subject of the next data set is S. cerevisiae. Conditions: 30° C., Lee and Goldberg (1998); cited from earlier work.
Data set [6] has as its system 20S proteasome. As to the kind of experiment: 20S proteasome activity/inhibition assay with Suc-LLVY-AMC (AMC fluorescence). It counts as biochemical, yeast; Ustilago maydis. Conditions: 40 nM MG-132, FIGS. 1 and 2. As to the method: FIG. 1 is an activity assay for the 20S proteasome from yeast. The substrate used for the chymotryptic activity was Suc-LLVY-AMC (SEQ. ID. NO. 1). Liberation of AMC was determined fluorometrically as a function of time. The proteasome activity was determined in a 1:100 dilution of a yeast extract in the presence of 40 nM MG132 and in the absence of MG-132. As a negative control, the reaction was carried out without enzyme (buffer).
FIG. 2 is an activity assay for the 20S proteasome from Ustilago maydis. The substrate used for the chymotryptic activity was Suc-LLVY-AMC (SEQ. ID. NO. 1). Liberation of AMC was determined fluorometrically as a function of time. The proteasome activity was determined in a 1:100 and 1:20 dilution of a U. maydis preparation. […]
The proteolytic activity measurable in this way can be influenced by an inhibitor such as, for example, MG-132, resulting in a lower relative fluorescence being observed (FIGS. 1 and 2). […]
The activity and inhibition assay which makes use of the known inhibitor MG-132 from Calbiochem and which is intended to check the usability of the method of the invention was carried out in 384-well MTPs (microtitre plates with 384 wells). […] The preliminary measurement (fluorescence) was carried out at 360/465 nm (35 nm bandwidth). […] The fluorescence was measured again at 360/465 nm (35 nm bandwidth).

For data set [7] the following is noted: cited from earlier work.
Data set [8] concerns 20S proteasome. Conditions: read-out: KM for Suc-LLVY-AMC; approx. 70 ng proteasomes per reaction, Lineweaver-Burke.
Protocol: A constant amount of proteasomes (approx. 70 ng per reaction) was incubated with increasing amounts of substrate and the increase in fluorescence was then determined over a period of 5 minutes. The slopes of the curve (dotted line) were determined by calculating trend lines.

In brackets after ≈: the same amount, converted by molar mass. *1 amine or outer side, *2 acyl side, *3 side chain or, on linkers, in order; H or OH if unused. Where a SMILES comes first, the peptide text is derived from it. [ ]: non-standard residue; d: D form. The star is where a group is joined. AMC = Cc1cc(=O)oc2cc(N*)ccc12; Suc = O=C(CCC(=O)[*:2])[*:1]; Nva = CCC[C@H](N)C(=O)O; Cbz = O=C(OCc1ccccc1)*

The text below walks through data of patent publication US7601512B2, “Methods for identifying inhibitors of the 20S and 26S proteasome” (Bayer CropScience AG, priority 2002, dated 2009).

For the compound Aprotinin [Example 2], the “MIC (minimum inhibitory concentration)” value is 339.3 ppm in data set [1]; 18.0 ppm in data set [2] (PYRIOR, agar diffusion assay); above 1000 ppm in [3]; above 1000 ppm in data set [4]; 750 ppm against Ustilago maydis (USTIMA); above 1000 ppm in data set [5].
In the case of `CCC[C@@H](C=O)NC(=O)[C@H](CC(C)C)NC(=O)[C@H](CC(C)C)NC(=O)OCc1ccccc1` [Example 1, Carbobenzoxy-L-leucyl-L-leucyl-L-norvalinal] (Cbz-Leu-Leu-[Nva]-aldehyde), the MIC in [1] (Botrytis cinerea, read-out: MIC (minimum inhibitory concentration)) is 58.6 µg/mL (≈ 127 µM); in data set [2] (Pyricularia, read-out: MIC (minimum inhibitory concentration)) it was 2 µg/mL (≈ 4.33 µM); in data set [3] (Oculimacula yallundae, read-out: MIC (minimum inhibitory concentration)) it was above 1000 µg/mL; in [4] (Rhizoctonia solani, read-out: MIC (minimum inhibitory concentration)), above 1000 µg/mL; in the data set with Ustilago maydis (USTIMA) (Mycosarcoma maydis, read-out: MIC (minimum inhibitory concentration)) it was 750 µg/mL (≈ 1620 µM); in [5] (Fusarium culmorum, FUSACU, agar diffusion assay, read-out: MIC (minimum inhibitory concentration)) it was above 1000 µg/mL.
For `CC(C)C[C@@H](C=O)NC(=O)[C@H](CC(C)C)NC(=O)[C@H](CC(C)C)NC(=O)OCc1ccccc1` [MG-132, Z-Leu-Leu-Leu-CHO] (Cbz-Leu-Leu-Leu-aldehyde), in the data set on S. cerevisiae, the “effect on the growth rate of yeast cells” value is “only a minimum effect, if any”. Besides, the “relative fluorescence (proteasome activity) in presence of inhibitor” value in the data set with 20S proteasome [6] is “markedly reduces the relative fluorescence”.
One may read the Km as the substrate concentration at which the rate is half of its maximum. Take “Suc-Leu-Leu-Val-Tyr-AMC (Suc-LLVY-{AMC}; SMILES Cc1cc(=O)oc2cc(NC(=O)[C@H](Cc3ccc(O)cc3)NC(=O)[C@@H](NC(=O)[C@H](CC(C)C)NC(=O)[C@H](CC(C)C)NC(=O)CCC(=O)O)C(C)C)ccc12) [Suc-LLVY-AMC]”: the “solubility in DMSO” value in [7] was 50 mg/mL. In addition, in the data set with 20S proteasome [8], the Km was found to be 5 µM.
